# Results reported in paper PMC4561207 (Child's nervous system : ChNS : official journal of the …, 2015).
# “Also recorded” adds a separate entry of the source.
# Experiment: Toxicities attributed to Cediranib
# Format: in vivo, human
smiles,measurement,setting,value
"COc1cc2c(Oc3ccc4[nH]c(C)cc4c3F)ncnc2cc1OCCCN1CCCC1 [cediranib, Cediranib]","Eye disorders - Other, specify, events (patients)",grade 3 TOX,1(1)
same,"Fatigue, events (patients)",grade 3 TOX,2(2)
same,"Headache, events (patients)",grade 3 TOX,2(2)
same,"Hydrocephalus, events (patients)",grade 3 TOX,1(1)
same,"Hypertension, events (patients)",grade 3 TOX,10(10)
same,"Hypertriglyceridemia, events (patients)",grade 3 TOX,1(1)
same,"Hypokalemia, events (patients)",grade 3 TOX,2(1)
same,"Hyponatremia, events (patients)",grade 3 TOX,3(3)
same,"Lipase increased, events (patients)",grade 3 TOX,1(1)
same,"Lymphocyte count decreased, events (patients)",grade 3 TOX,5(3)
same,"Nausea, events (patients)",grade 3 TOX,1(1)
same,"Neutrophil count decreased, events (patients)",grade 3 TOX,2(2)
same,"Palmar-plantar erythrodysesthesia syndrome, events (patients)",grade 3 TOX,3(3)
same,"Proteinuria, events (patients)",grade 3 TOX,3(3)
same,"Reversible posterior leukoencephalopathy syndrome, events (patients)",grade 3 TOX,1(1)
same,"Vomiting, events (patients)",grade 3 TOX,1(1)
same,"Weight loss, events (patients)",grade 3 TOX,1(1)
same,"White blood cell decreased, events (patients)",grade 3 TOX,1(1)
same,"Alanine aminotransferase increased, events (patients)",grade 4 TOX,1(1)
same,"Aspartate aminotransferase increased, events (patients)",grade 4 TOX,1(1)
same,"Hypothyroidism, events (patients)",grade 4 TOX,1(1)
same,"Lymphocyte count decreased, events (patients)",grade 4 TOX,1(1)
same,"Nervous system disorders - Other, specify, events (patients)",grade 4 TOX,1(1)
same,"Papilledema, events (patients)",grade 4 TOX,1(1)
same,"fatigue, number of patients","human, in vivo",16
same,left ventricular dysfunction,"human, in vivo",No left ventricular dysfunction was identified in any of the patients; also recorded: No dose-limiting decreases in left ventricular function were observed
same,"palmar-plantar erythrodysesthesia syndrome, number of patients","human, in vivo",7
same,"hypertension, percentage of patients",of 48 eligible patients,77%
same,"hypothyroidism, number of patients",of 48 eligible patients,15
same,"hypothyroidism, percentage of patients",of 48 eligible patients,31%
same,"proteinuria, number of patients",of 48 eligible patients,20
same,"proteinuria, percentage of patients",of 48 eligible patients,42%
same,"hypertension, number of patients","of 48 eligible patients, all dose levels",37
same,"diarrhea grade 3, number of patients",of thirty-two patients with diarrhea,2
same,effect on bone growth: bone-related AEs,short duration of drug exposure in the majority of patients,no bone-related AEs were identified
same,"Abdominal pain, events (patients)",total TOX,10(10)
same,"Acidosis, events (patients)",total TOX,1(1)
same,"Alanine aminotransferase increased, events (patients)",total TOX,65(28)
same,"Alkaline phosphatase increased, events (patients)",total TOX,2(2)
same,"Anal mucositis, events (patients)",total TOX,1(1)
same,"Anal pain, events (patients)",total TOX,1(1)
same,"Anemia, events (patients)",total TOX,3(3)
same,"Anorexia, events (patients)",total TOX,13(10)
same,"Arthralgia, events (patients)",total TOX,1(1)
same,"Aspartate aminotransferase increased, events (patients)",total TOX,43(21)
same,"Back pain, events (patients)",total TOX,2(2)
same,"Blood bilirubin increased, events (patients)",total TOX,13(7)
same,"Blurred vision, events (patients)",total TOX,1(1)
same,"Bone pain, events (patients)",total TOX,2(1)
same,"Capillary leak syndrome, events (patients)",total TOX,1(1)
same,"Cardiac troponin I increased, events (patients)",total TOX,1(1)
same,"Chest wall pain, events (patients)",total TOX,1(1)
same,"Cholesterol high, events (patients)",total TOX,1(1)
same,"Chronic kidney disease, events (patients)",total TOX,1(1)
same,"Confusion, events (patients)",total TOX,1(1)
same,"Constipation, events (patients)",total TOX,6(2)
same,"Cough, events (patients)",total TOX,1(1)
same,"Creatinine increased, events (patients)",total TOX,1(1)
same,"Dehydration, events (patients)",total TOX,4(4)
same,"Depressed level of consciousness, events (patients)",total TOX,1(1)
same,"Depression, events (patients)",total TOX,1(1)
same,"Diarrhea, events (patients)",total TOX,61(32)
same,"Dizziness, events (patients)",total TOX,5(3)
same,"Dry mouth, events (patients)",total TOX,1(1)
same,"Dry skin, events (patients)",total TOX,1(1)
same,"Dyspepsia, events (patients)",total TOX,3(3)
same,"Dysphasia, events (patients)",total TOX,1(1)
same,"Edema face, events (patients)",total TOX,1(1)
same,"Edema limbs, events (patients)",total TOX,1(1)
same,"Endocrine disorders - Other, specify, events (patients)",total TOX,1(1)
same,"Enterocolitis, events (patients)",total TOX,1(1)
same,"Epistaxis, events (patients)",total TOX,5(4)
same,"Eye disorders - Other, specify, events (patients)",total TOX,1(1)
same,"Fatigue, events (patients)",total TOX,18(16)
same,"Fecal incontinence, events (patients)",total TOX,1(1)
same,"Fever, events (patients)",total TOX,1(1)
same,"Flushing, events (patients)",total TOX,3(1)
same,"GGT increased, events (patients)",total TOX,1(1)
same,"Gastritis, events (patients)",total TOX,1(1)
same,"Gastrointestinal disorders - Other, specify, events (patients)",total TOX,2(2)
same,"Headache, events (patients)",total TOX,10(7)
same,"Hematuria, events (patients)",total TOX,5(3)
same,"Hemoglobin increased, events (patients)",total TOX,6(2)
same,"Hoarseness, events (patients)",total TOX,1(1)
same,"Hydrocephalus, events (patients)",total TOX,1(1)
same,"Hypercalcemia, events (patients)",total TOX,3(2)
same,"Hyperglycemia, events (patients)",total TOX,9(8)
same,"Hyperkalemia, events (patients)",total TOX,2(2)
same,"Hypermagnesemia, events (patients)",total TOX,7(5)
same,"Hypernatremia, events (patients)",total TOX,5(4)
same,"Hypertension, events (patients)",total TOX,57(37)
same,"Hyperthyroidism, events (patients)",total TOX,2(2)
same,"Hypertriglyceridemia, events (patients)",total TOX,1(1)
same,"Hypoalbuminemia, events (patients)",total TOX,26(13)
same,"Hypocalcemia, events (patients)",total TOX,17(8)
same,"Hypoglycemia, events (patients)",total TOX,3(3)
same,"Hypokalemia, events (patients)",total TOX,16(12)
same,"Hypomagnesemia, events (patients)",total TOX,7(5)
same,"Hyponatremia, events (patients)",total TOX,12(6)
same,"Hypophosphatemia, events (patients)",total TOX,14(8)
same,"Hypothyroidism, events (patients)",total TOX,21(15)
same,"Hypoxia, events (patients)",total TOX,1(1)
same,"INR increased, events (patients)",total TOX,1(1)
same,"Intracranial hemorrhage, events (patients)",total TOX,4(4)
same,"Investigations - Other, specify, events (patients)",total TOX,2(2)
same,"Joint effusion, events (patients)",total TOX,1(1)
same,"Leukoencephalopathy, events (patients)",total TOX,1(1)
same,"Lipase increased, events (patients)",total TOX,2(1)
same,"Lymphocyte count decreased, events (patients)",total TOX,24(10)
same,"Malaise, events (patients)",total TOX,2(1)
same,"Mucositis oral, events (patients)",total TOX,3(3)
same,"Myalgia, events (patients)",total TOX,2(2)
same,"Nausea, events (patients)",total TOX,19(10)
same,"Nervous system disorders - Other, specify, events (patients)",total TOX,1(1)
same,"Neutrophil count decreased, events (patients)",total TOX,20(10)
same,"Non-cardiac chest pain, events (patients)",total TOX,1(1)
same,"Oral pain, events (patients)",total TOX,2(2)
same,"Pain in extremity, events (patients)",total TOX,4(4)
same,"Pain, events (patients)",total TOX,1(1)
same,"Palmar-plantar erythrodysesthesia syndrome, events (patients)",total TOX,17(7)
same,"Papilledema, events (patients)",total TOX,1(1)
same,"Pericardial effusion, events (patients)",total TOX,1(1)
same,"Peripheral motor neuropathy, events (patients)",total TOX,1(1)
same,"Platelet count decreased, events (patients)",total TOX,25(18)
same,"Pleural effusion, events (patients)",total TOX,1(1)
same,"Proteinuria, events (patients)",total TOX,36(20)
same,"Rash acneiform, events (patients)",total TOX,2(2)
same,"Rash maculo-papular, events (patients)",total TOX,5(5)
same,"Rectal pain, events (patients)",total TOX,1(1)
same,"Renal and urinary disorders - Other, specify, events (patients)",total TOX,1(1)
same,"Respiratory, thoracic and mediastinal disorders - Other, specify, events (patients)",total TOX,1(1)
same,"Reversible posterior leukoencephalopathy syndrome, events (patients)",total TOX,2(1)
same,"Seizure, events (patients)",total TOX,1(1)
same,"Serum amylase increased, events (patients)",total TOX,1(1)
same,"Skin and subcutaneous tissue disorders - Other, specify, events (patients)",total TOX,1(1)
same,"Skin ulceration, events (patients)",total TOX,1(1)
same,"Stomach pain, events (patients)",total TOX,2(2)
same,"Urinary frequency, events (patients)",total TOX,1(1)
same,"Urinary retention, events (patients)",total TOX,1(1)
same,"Vascular disorders - Other, specify, events (patients)",total TOX,2(2)
same,"Voice alteration, events (patients)",total TOX,2(2)
same,"Vomiting, events (patients)",total TOX,27(13)
same,"Weight loss, events (patients)",total TOX,3(3)
same,"White blood cell decreased, events (patients)",total TOX,18(11)
